# Test results taken from patent publication US8143393B2, “Substituted 4-amino-pyrrolotriazine derivatives useful for treating hyper-proliferative disorders and diseases associated with angiogenesis” (Bayer HealthCare LLC, priority 2005, dated 2012).
# Biological target: T1, FGFR-1 (Homo sapiens, UniProt P11362)
# T1 construct: GST; made in house
# Assay: FGFR-1 TR-FRET biochemical assay
# Description: FGFR-1TR-FRET Biochemical Assay
# The FGFR-1 Assay was performed on half well 96-well opaque plates (Costar 3915) in a LANCE format. LANCE is a homogenous time resolved fluormetry based application available through Perkin Elmer. For this assay, 50 uL reactions were set up using: 0.6 uM ATP (Sigma), 25 nM poly GT-biotin (CIS BIO International), 2 nM Eu-labelled phospho-Tyr Ab (PY20 PerkinElmer), 10 nM Streptavidin-APC (Perkin Elmer), 5 nM FGFR1-GST (generated by DRT, Bayer Healthcare), 1% DMSO, 50 mM HEPES pH 7.5, 10 mM MgCl2, 0.1 mM EDTA, 0.015% Brij, 0.1 mg/ml BSA, 0.1% B-mercaptoethanol. All reactions were initiated with the addition of enzyme and were left to incubate for one hour at room temperature. Time-resolved fluorescence was then read on a Perkin Elmer VictorV Multilabel counter. The reading protocol uses an excitation wavelength at 340 nm and emission reads at both 615 and 665 nm. Signal was calculated as a ratio: (Flourescence at 665 nm/Flourescence at 615 nM)*10000 for each well. The background control used for this assay is the signal produced with all assay components excluding ATP. For IC50 generation, compounds were added prior to the enzyme initiation. A 50-fold stock plate was made with compounds serially diluted 1:5 in a 50% DMSO/50% dH2O solution. A 1 μL addition of the stock to the assay wells gave final compound concentrations ranging from 10 μM-0.128 nM in 1% DMSO. The data were expressed as percent inhibition: % inhibition=100−((Signal with inhibitor−background)/(Signal without inhibitor−background))*100.
# [1] = 0.6 uM ATP, 5 nM FGFR1-GST, bounds given in nM
# [2] = upper bound of the bin 'greater than 100 nM but less than 1 μM' (lower bound in E1)
# T1 sequence (P11362 22-822): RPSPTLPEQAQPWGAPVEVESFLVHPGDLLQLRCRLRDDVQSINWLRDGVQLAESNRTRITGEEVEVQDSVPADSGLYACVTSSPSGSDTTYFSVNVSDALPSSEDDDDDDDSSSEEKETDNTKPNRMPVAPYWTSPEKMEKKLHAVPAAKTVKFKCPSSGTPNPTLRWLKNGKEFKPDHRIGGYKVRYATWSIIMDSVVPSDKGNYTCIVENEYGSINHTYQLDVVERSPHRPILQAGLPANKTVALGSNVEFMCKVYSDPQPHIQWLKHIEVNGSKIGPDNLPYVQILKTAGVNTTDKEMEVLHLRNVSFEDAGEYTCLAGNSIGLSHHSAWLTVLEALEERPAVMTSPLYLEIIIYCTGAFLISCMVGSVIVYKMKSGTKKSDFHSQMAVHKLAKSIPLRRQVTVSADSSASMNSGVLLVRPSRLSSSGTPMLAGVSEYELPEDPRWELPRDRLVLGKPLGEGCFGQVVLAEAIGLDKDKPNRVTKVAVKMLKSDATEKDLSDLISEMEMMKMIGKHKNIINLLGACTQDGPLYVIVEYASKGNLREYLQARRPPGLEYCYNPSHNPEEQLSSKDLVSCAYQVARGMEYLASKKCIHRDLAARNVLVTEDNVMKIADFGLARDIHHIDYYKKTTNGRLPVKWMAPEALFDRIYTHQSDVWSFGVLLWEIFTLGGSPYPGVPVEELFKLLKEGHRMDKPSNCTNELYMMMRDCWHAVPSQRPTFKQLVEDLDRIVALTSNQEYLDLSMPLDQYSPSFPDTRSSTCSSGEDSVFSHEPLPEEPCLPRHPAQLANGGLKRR
SMILES,IC50 [1],IC50 [2]
"Nc1ncnn2c(CN3CCOCC3)cc(-c3cc(F)c(NC(=O)Nc4cccc(C(F)(F)F)c4F)cc3F)c12 [Example 42, N-{4-[4-amino-7-(morpholin-4-ylmethyl)pyrrolo[2,1-f][1,2,4]triazin-5-yl]-2,5-difluorophenyl}-N′-[2-fluoro-3-(trifluoromethyl)phenyl]urea]",10 to 100 nM,–
"CC(C)(C)c1ccccc1NC(=O)Nc1ccc(-c2cc(CN3CCOCC3)n3ncnc(N)c23)cc1 [Example 49, N-{4-[4-amino-7-(morpholin-4-ylmethyl)pyrrolo[2,1-f][1,2,4]triazin-5-yl]phenyl}-N′-(2-tert-butylphenyl)urea]",> 100 nM,< 1000 nM
"CCc1cccc(NC(=O)Nc2ccc(-c3cc(CN4CCOCC4)n4ncnc(N)c34)cc2)c1 [Example 50, N-{4-[4-amino-7-(morpholin-4-ylmethyl)pyrrolo[2,1-f][1,2,4]triazin-5-yl]phenyl}-N′-(3-ethylphenyl)urea]",< 10 nM,–
"Nc1ncnn2c(CN3CCOCC3)cc(-c3ccc(NC(=O)Nc4cc(C(F)(F)F)ccc4Cl)cc3)c12 [Example 52, N-{4-[4-amino-7-(morpholin-4-ylmethyl)pyrrolo[2,1-f][1,2,4]triazin-5-yl]phenyl}-N′-[2-chloro-5-(trifluoromethyl)phenyl]urea]",< 10 nM,–
"CC(C)(C)c1ccnc(NC(=O)Nc2ccc(-c3cc(CN4CCOCC4)n4ncnc(N)c34)cc2)c1 [Example 53, N-{4-[4-amino-7-(morpholin-4-ylmethyl)pyrrolo[2,1-f][1,2,4]triazin-5-yl]phenyl}-N′-(4-tert-butylpyridin-2-yl)urea]",< 10 nM,–
"Nc1ncnn2c(CN3CCOCC3)cc(-c3ccc(NC(=O)Nc4ccc(F)cn4)cc3)c12 [Example 55, N-{4-[4-amino-7-(morpholin-4-ylmethyl)pyrrolo[2,1-f][1,2,4]-triazin-5-yl]phenyl}-N′-(5-fluoropyridin-2-yl)urea]",> 100 nM,< 1000 nM
"Cc1cccc(NC(=O)Nc2ccc(-c3cc(CN4CCOCC4)n4ncnc(N)c34)cc2)n1 [Example 57, N-{4-[4-amino-7-(morpholin-4-ylmethyl)pyrrolo[2,1-f][1,2,4]-triazin-5-yl]phenyl}-N′-(6-methylpyridin-2-yl)urea]",> 100 nM,< 1000 nM
"Nc1ncnn2c(CN3CCOCC3)cc(-c3ccc(NC(=O)Nc4cccc(C(F)(F)F)c4F)cc3)c12 [Example 58, N-{4-[4-amino-7-(morpholin-4-ylmethyl)pyrrolo[2,1-f][1,2,4]-triazin-5-yl]phenyl}-N′-[2-fluoro-3-(trifluoromethyl)phenyl]urea]",10 to 100 nM,–
"CC(=O)c1cccc(NC(=O)Nc2ccc(-c3cc(CN4CCOCC4)n4ncnc(N)c34)cc2)c1 [Example 59, N-(3-acetylphenyl)-N′-{4-[4-amino-7-(morpholin-4-ylmethyl)pyrrolo[2,1-f][1,2,4]triazin-5-yl]phenyl}urea]",10 to 100 nM,–
"Nc1ncnn2c(CN3CCOCC3)cc(-c3ccc(NC(=O)Nc4ccc(Cl)cn4)cc3)c12 [Example 63, N-{4-[4-amino-7-(morpholin-4-ylmethyl)pyrrolo[2,1-f][1,2,4]triazin-5-yl]phenyl}-N′-(5-chloropyridin-2-yl)urea]",> 100 nM,< 1000 nM
"Nc1ncnn2c(CN3CCOCC3)cc(-c3ccc(NC(=O)Nc4cc(C(F)(F)F)ccc4Cl)c(F)c3)c12 [Example 65, N-4-[4-amino-7-(morpholin-4-ylmethyl)pyrrolo[2,1-f][1,2,4]triazin-5-yl]-2-fluorophenyl-N′-[2-chloro-5-(trifluoromethyl)phenyl]urea]",< 10 nM,–
"Nc1ncnn2c(CN3CCOCC3)cc(-c3ccc(NC(=O)Nc4cccc(Cl)c4)c(F)c3)c12 [Example 66, N-4-[4-amino-7-(morpholin-4-ylmethyl)pyrrolo[2,1-f][1,2,4]triazin-5-yl]-2-fluorophenyl-N′-(3-chlorophenyl)urea]",10 to 100 nM,–
"Nc1ncnn2c(CN3CCOCC3)cc(-c3ccc(NC(=O)Nc4cccc(Br)c4)c(F)c3)c12 [Example 67, N-4-[4-amino-7-(morpholin-4-ylmethyl)pyrrolo[2,1-f][1,2,4]triazin-5-yl]-2-fluorophenyl-N′-(3-bromophenyl)urea]",< 10 nM,–
"CCc1cccc(NC(=O)Nc2ccc(-c3cc(CN4CCS(=O)(=O)CC4)n4ncnc(N)c34)cc2F)c1 [Example 75, N-(4-{4-amino-7-[(1,1-dioxidothiomorpholin-4-yl)methyl]pyrrolo[2,1-f][1,2,4]triazin-5-yl}-2-fluorophenyl)-N′-(3-ethylphenyl)urea]",< 10 nM,–
"Nc1ncnn2c(CN3CCS(=O)(=O)CC3)cc(-c3ccc(NC(=O)Nc4cccc(C(F)(F)F)c4)c(F)c3)c12 [Example 77, N-(4-{4-amino-7-[(1,1-dioxidothiomorpholin-4-yl)methyl]pyrrolo[2,1-f][1,2,4]triazin-5-yl}-2-fluorophenyl)-N′-[3-(trifluoromethyl)phenyl]urea]",< 10 nM,–
"Nc1ncnn2c(CN3CCS(=O)(=O)CC3)cc(-c3ccc(NC(=O)Nc4cc(C(F)(F)F)ccn4)c(F)c3)c12 [Example 78, N-(4-{4-amino-7-[(1,1-dioxidothiomorpholin-4-yl)methyl]pyrrolo[2,1-f][1,2,4]triazin-5-yl}-2-fluorophenyl)-N′-[4-(trifluoromethyl)pyridin-2-yl]urea]",< 10 nM,–
"Nc1ncnn2c(CN3CCS(=O)(=O)CC3)cc(-c3ccc(NC(=O)Nc4cc(C(F)(F)F)ccc4F)c(F)c3)c12 [Example 79, N-(4-{4-amino-7-[(1,1-dioxidothiomorpholin-4-yl)methyl]pyrrolo[2,1-f][1,2,4]triazin-5-yl}-2-fluorophenyl)-N′-[2-fluoro-5-(trifluoromethyl)phenyl]urea]",< 10 nM,–
"CC(C)(C)OC(=O)N1CCN(Cc2cc(-c3ccc(NC(=O)Nc4cc(C(F)(F)F)ccc4F)cc3)c3c(N)ncnn23)CC1 [Example 80, tert-butyl 4-[(4-amino-5-{4-[({[2-fluoro-5-(trifluoromethyl)phenyl]amino}carbonyl)amino]phenyl}pyrrolo[2,1-f][1,2,4]triazin-7-yl)methyl]piperazine-1-carboxylate]",> 100 nM,< 1000 nM
"Nc1ncnn2c(CN3CCNCC3)cc(-c3ccc(NC(=O)Nc4cc(C(F)(F)F)ccc4F)cc3)c12 [Example 81, N-4-[4-amino-7-(piperazin-1-ylmethyl)pyrrolo[2,1-f][1,2,4]triazin-5-yl]phenyl-N′-[2-fluoro-5-(trifluoromethyl)phenyl]urea]",< 10 nM,–
"CC(C)(C)OC(=O)N1CCN(Cc2cc(-c3ccc(NC(=O)Nc4cc(C(F)(F)F)ccc4F)c(F)c3)c3c(N)ncnn23)CC1 [Example 82, tert-butyl 4-[(4-amino-5-{3-fluoro-4-[({[2-fluoro-5-(trifluoromethyl)phenyl]amino}carbonyl)amino]phenyl}pyrrolo[2,1-f][1,2,4]triazin-7-yl)methyl]piperazine-1-carboxylate]",10 to 100 nM,–
"CCS(=O)(=O)N1CCN(Cc2cc(-c3ccc(NC(=O)Nc4cc(C(F)(F)F)ccc4F)cc3)c3c(N)ncnn23)CC1 [Example 84, N-[4-(4-amino-7-{[4-(ethylsulfonyl)piperazin-1-yl]methyl}pyrrolo[2,1-f][1,2,4]triazin-5-yl)phenyl]-N′-[2-fluoro-5-(trifluoromethyl)phenyl]urea]",10 to 100 nM,–
"CC(C)S(=O)(=O)N1CCN(Cc2cc(-c3ccc(NC(=O)Nc4cc(C(F)(F)F)ccc4F)cc3)c3c(N)ncnn23)CC1 [Example 85, N-[4-(4-amino-7-{[4(isopropylsulfonyl)piperazin-1-yl]methyl}pyrrolo[2,1-f][1,2,4]triazin-5-yl)phenyl]-N′-[2-fluoro-5-(trifluoromethyl)phenyl]urea]",10 to 100 nM,–
"Nc1ncnn2c(CN3CCN(S(=O)(=O)CC(F)(F)F)CC3)cc(-c3ccc(NC(=O)Nc4cc(C(F)(F)F)ccc4F)cc3)c12 [Example 86, N-{4-[4-amino-7-({4-[(2,2,2-trifluoroethyl)sulfonyl]piperazin-1-yl}methyl)pyrrolo[2,1-f][1,2,4]triazin-5-yl]phenyl}-N′-[2-fluoro-5-(trifluoromethyl)phenyl]urea]",10 to 100 nM,–
"CC(=O)N1CCN(Cc2cc(-c3ccc(NC(=O)Nc4cc(C(F)(F)F)ccc4F)c(F)c3)c3c(N)ncnn23)CC1 [Example 89, N-(4-{7-[(4-acetylpiperazin-1-yl)methyl]-4-aminopyrrolo[2,1-f][1,2,4]triazin-5-yl}-2-fluorophenyl)-N′-[2-fluoro-5-(trifluoromethyl)phenyl]urea]",< 10 nM,–
"CC(=O)c1cc(-c2ccc(NC(=O)Nc3cc(C(F)(F)F)ccc3F)cc2)c2c(N)ncnn12 [Example 100, N-[4-(7-acetyl-4-aminopyrrolo[2,1-f][1,2,4]triazin-5-yl)phenyl]-N′-[2-fluoro-5-(trifluoromethyl)phenyl]urea]",10 to 100 nM,–
"Nc1ncnn2c(C(=O)CN3CCOCC3)cc(-c3ccc(NC(=O)Nc4cc(C(F)(F)F)ccc4F)cc3)c12 [Example 103, N-{4-[4-amino-7-(morpholin-4-ylacetyl)pyrrolo[2,1-f][1,2,4]triazin-5-yl]phenyl}-N′-[2-fluoro-5-(trifluoromethyl)-phenyl]urea]",10 to 100 nM,–
